# Measurements: article PMC5078040 (Oncotarget, 2016)
# What was measured:
# [1] = target: T1, CDK4-cyclinD1 (Homo sapiens, UniProt P11802); assay: KinomeScan; format: binding; conditions: 1uM
# T1 construct: purchased DiscoveRx KINOMEscan
# [2] = target: T2, CAMKK1 (Homo sapiens, UniProt Q8N5S9); assay: KinomeScan; format: binding; conditions: 1uM
# T2 construct: purchased DiscoveRx KINOMEscan
# [3] = target: T3, IKK-alpha (Homo sapiens, UniProt O15111); assay: KinomeScan; format: binding; conditions: 1uM
# T3 construct: purchased DiscoveRx KINOMEscan
# T3 sequence (O15111 whole entry): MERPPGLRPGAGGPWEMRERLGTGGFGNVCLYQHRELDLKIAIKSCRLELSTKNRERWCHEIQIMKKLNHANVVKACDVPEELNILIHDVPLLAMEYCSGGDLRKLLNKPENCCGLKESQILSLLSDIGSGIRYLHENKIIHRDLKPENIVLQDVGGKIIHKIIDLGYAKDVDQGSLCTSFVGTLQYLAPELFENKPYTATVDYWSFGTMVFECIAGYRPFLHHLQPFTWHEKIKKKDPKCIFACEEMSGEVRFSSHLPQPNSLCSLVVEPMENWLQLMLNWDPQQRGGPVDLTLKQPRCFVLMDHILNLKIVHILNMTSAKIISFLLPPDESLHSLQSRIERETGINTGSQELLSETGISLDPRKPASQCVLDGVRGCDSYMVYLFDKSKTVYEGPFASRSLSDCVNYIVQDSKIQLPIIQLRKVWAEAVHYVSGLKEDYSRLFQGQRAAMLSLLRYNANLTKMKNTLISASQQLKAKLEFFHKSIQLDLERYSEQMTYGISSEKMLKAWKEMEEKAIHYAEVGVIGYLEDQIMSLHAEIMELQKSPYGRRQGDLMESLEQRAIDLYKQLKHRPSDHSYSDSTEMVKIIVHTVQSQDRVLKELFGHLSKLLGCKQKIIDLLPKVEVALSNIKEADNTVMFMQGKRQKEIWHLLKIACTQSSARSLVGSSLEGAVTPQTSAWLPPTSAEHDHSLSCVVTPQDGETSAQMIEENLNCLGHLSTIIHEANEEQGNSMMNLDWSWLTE
# [4] = target: T4, CSNK1E (Homo sapiens, UniProt P49674); assay: KinomeScan; format: binding; conditions: 1uM
# T4 construct: purchased DiscoveRx KINOMEscan
# [5] = target: T5, ANKK1 (Homo sapiens, UniProt Q8NFD2); assay: KinomeScan; format: binding; conditions: 1uM
# T5 construct: purchased DiscoveRx KINOMEscan
# [6] = target: T6, MYO3B (Homo sapiens, UniProt Q8WXR4); assay: KinomeScan; format: binding; conditions: 1uM
# T6 construct: purchased DiscoveRx KINOMEscan
# T6 sequence (Q8WXR4 whole entry): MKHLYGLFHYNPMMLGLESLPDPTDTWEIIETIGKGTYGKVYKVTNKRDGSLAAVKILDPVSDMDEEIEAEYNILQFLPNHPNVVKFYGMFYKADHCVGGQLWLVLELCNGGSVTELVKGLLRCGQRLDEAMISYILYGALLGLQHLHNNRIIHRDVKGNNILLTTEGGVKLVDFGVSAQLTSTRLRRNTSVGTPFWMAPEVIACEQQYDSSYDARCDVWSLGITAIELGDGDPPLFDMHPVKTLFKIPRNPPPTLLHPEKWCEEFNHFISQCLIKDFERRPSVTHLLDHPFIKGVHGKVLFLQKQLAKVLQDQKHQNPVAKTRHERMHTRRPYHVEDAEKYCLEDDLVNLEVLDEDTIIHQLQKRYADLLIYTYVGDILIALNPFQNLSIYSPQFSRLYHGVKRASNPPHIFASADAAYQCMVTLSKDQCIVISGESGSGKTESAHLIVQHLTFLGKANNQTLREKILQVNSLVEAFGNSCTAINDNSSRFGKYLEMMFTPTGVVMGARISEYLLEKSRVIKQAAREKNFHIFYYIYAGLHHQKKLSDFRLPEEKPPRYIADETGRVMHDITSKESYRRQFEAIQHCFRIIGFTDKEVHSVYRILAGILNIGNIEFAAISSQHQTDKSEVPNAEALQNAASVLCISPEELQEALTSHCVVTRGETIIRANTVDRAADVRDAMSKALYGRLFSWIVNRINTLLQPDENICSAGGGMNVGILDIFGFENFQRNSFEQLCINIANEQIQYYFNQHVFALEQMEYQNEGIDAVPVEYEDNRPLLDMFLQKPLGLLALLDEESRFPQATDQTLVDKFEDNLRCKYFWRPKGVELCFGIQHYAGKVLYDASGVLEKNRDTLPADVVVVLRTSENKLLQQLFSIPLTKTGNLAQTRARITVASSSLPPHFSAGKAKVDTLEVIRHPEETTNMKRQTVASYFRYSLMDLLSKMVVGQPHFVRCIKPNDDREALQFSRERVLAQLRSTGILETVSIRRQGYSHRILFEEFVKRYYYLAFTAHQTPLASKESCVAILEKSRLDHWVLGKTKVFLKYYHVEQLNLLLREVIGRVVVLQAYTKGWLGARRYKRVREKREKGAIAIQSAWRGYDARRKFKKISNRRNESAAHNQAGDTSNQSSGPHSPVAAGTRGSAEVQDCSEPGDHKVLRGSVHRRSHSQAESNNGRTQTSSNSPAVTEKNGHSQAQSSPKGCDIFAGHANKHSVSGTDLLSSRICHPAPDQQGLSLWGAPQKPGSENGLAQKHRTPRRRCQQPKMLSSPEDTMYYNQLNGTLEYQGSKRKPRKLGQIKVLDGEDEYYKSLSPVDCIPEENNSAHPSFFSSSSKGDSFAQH
# [7] = system: AML patient primary cell; assay: Anti-proliferative efficacy against patient primary cells; format: cell-based; conditions: Homo sapiens
# Procedure: Mononuclear cells were isolated from AML patients. Mononuclear cells were isolated by density gradient centrifugation through Ficoll-Plaque Plus (Amersham Pharmacia Biotech AB, Uppsala, Sweden) at 2000 rpm for 30 minutes, followed by two washes in 1X PBS. Freeze-thawed cells were then cultured in liquid culture (DMEM, supplemented with 20% FBS). All blood and bone marrow samples from AML patients were obtained through written consent under approval of the Dana Farber Cancer Institute Institutional Review Board. The ethics committees approved the consent procedure.
# (§1) Cells were grown in 96-well culture plates (3000-4000/well). […] Cell proliferation was determined after treatment with compounds for 72 hours. Cell viability was measured using the CellTiter–Glo Assay Kit (Promega, USA), according to the manufacturer's instructions, and luminescence was measured in a multi-label reader (Envision, PerkinElmer, USA). Data were normalized to control groups (DMSO) and represented by the mean of three independent measurements with standard error <20%. GI50 values were calculated using Prism 5.0 (GraphPad Software, San Diego, CA).
# [8] = target: T7, TAOK1 (Homo sapiens, UniProt Q7L7X3); assay: KinomeScan; format: binding; conditions: 1uM
# T7 construct: purchased DiscoveRx KINOMEscan
# T7 sequence (Q7L7X3 whole entry): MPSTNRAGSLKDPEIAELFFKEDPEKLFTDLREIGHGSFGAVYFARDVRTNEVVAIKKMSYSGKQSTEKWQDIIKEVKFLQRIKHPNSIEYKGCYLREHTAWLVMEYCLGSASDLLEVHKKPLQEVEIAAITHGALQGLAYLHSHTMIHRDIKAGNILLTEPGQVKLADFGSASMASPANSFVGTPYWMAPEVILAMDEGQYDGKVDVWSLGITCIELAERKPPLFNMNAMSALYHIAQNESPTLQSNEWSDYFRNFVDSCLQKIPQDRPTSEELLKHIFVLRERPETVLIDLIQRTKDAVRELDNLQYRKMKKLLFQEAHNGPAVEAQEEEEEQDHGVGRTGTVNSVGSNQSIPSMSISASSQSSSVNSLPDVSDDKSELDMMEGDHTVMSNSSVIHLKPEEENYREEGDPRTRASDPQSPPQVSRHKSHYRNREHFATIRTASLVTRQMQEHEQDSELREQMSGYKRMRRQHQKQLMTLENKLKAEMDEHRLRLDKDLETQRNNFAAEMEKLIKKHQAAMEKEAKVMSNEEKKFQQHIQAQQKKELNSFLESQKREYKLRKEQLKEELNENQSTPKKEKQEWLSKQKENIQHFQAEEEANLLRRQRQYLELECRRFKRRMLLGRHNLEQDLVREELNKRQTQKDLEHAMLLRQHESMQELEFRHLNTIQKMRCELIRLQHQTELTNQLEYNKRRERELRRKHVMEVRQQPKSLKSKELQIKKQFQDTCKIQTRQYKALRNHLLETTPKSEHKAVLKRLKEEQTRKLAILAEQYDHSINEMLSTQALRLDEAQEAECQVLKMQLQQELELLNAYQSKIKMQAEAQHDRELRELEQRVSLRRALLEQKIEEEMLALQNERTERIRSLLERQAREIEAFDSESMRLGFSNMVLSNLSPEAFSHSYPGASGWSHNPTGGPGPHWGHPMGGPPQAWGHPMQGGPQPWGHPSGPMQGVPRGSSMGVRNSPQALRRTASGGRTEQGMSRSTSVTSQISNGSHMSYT
# [9] = target: T8, ERK4 (Homo sapiens, UniProt P31152); assay: KinomeScan; format: binding; conditions: 1uM
# T8 construct: purchased DiscoveRx KINOMEscan
# T8 sequence (P31152 whole entry): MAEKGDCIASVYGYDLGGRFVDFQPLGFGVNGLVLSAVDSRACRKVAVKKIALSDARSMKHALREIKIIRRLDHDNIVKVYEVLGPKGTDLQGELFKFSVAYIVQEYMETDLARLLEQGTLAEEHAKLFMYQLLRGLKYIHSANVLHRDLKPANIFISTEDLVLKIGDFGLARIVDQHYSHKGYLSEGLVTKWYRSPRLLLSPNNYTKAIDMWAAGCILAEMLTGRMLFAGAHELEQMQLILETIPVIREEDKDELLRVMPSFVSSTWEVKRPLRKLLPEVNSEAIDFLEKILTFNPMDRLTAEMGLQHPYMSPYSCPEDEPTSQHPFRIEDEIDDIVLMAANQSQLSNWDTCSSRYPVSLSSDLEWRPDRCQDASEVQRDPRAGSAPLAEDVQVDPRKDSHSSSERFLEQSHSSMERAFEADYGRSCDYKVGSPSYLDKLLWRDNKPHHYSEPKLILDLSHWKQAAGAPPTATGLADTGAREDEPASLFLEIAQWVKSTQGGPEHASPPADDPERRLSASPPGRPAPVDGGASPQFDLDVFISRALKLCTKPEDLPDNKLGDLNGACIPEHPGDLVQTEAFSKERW
# [10] = target: T9, WEE2 (Homo sapiens, UniProt P0C1S8); assay: KinomeScan; format: binding; conditions: 1uM
# T9 construct: purchased DiscoveRx KINOMEscan
# [11] = target: T10, TRKB (Homo sapiens, UniProt Q16620); assay: KinomeScan; format: binding; conditions: 1uM
# T10 construct: purchased DiscoveRx KINOMEscan
# [12] = system: MOLM-14; assay: Anti-proliferative assay; format: cell-based; conditions: Homo sapiens; MOLM-14, AML-M5; 72 hours, CellTiter-Glo
# Procedure: as §1
# [13] = system: AMO-1; assay: Anti-proliferative assay; format: cell-based; conditions: Homo sapiens, AMO1; AMO-1, MM; 72 hours, CellTiter-Glo
# Procedure: as §1
# [14] = system: OCI-AML-2; assay: Anti-proliferative assay; format: cell-based; conditions: Homo sapiens, OCI-AML2; OCI-AML-2, AML-M4; 72 hours, CellTiter-Glo
# Procedure: as §1
# [15] = system: OCI-AML-3; assay: Anti-proliferative assay; format: cell-based; conditions: Homo sapiens; OCI-AML-3, AML-M4; 72 hours, CellTiter-Glo
# Procedure: as §1
# [16] = system: NALM-6; assay: Anti-proliferative assay; format: cell-based; conditions: Homo sapiens, 72 hours, CellTiter-Glo
# Procedure: as §1
# [17] = system: RPMI8226; assay: Anti-proliferative assay; format: cell-based; conditions: Homo sapiens, RPMI-8226; RPMI8226, MM; 72 hours, CellTiter-Glo
# Procedure: as §1
# [18] = system: MEC-2; assay: Anti-proliferative assay; format: cell-based; conditions: Homo sapiens, MEC2; MEC-2, CLL; 72 hours, CellTiter-Glo
# Procedure: as §1
# [19] = system: Ramos(new); assay: Anti-proliferative assay; format: cell-based; conditions: Homo sapiens, Burrkit lymphoma, 72 hours, CellTiter-Glo
# Procedure: as §1
# [20] = system: PF382; assay: Anti-proliferative assay; format: cell-based; conditions: Homo sapiens, PF-382; PF382, ALL; 72 hours, CellTiter-Glo
# Procedure: as §1
# [21] = system: HEL; assay: Anti-proliferative assay; format: cell-based; conditions: Homo sapiens, AML-M6, 72 hours, CellTiter-Glo
# Procedure: as §1
# [22] = system: MV4-11; assay: Anti-proliferative assay; format: cell-based; conditions: Homo sapiens; MV4-11, AML; 72 hours, CellTiter-Glo
# Procedure: as §1
# [23] = system: Namalwa; assay: Anti-proliferative assay; format: cell-based; conditions: Homo sapiens, Burrkit lymphoma, 72 hours, CellTiter-Glo
# Procedure: as §1
# [24] = system: NOMO-1; assay: Anti-proliferative assay; format: cell-based; conditions: Homo sapiens; NOMO-1, AML-M5; 72 hours, CellTiter-Glo
# Procedure: as §1
# [25] = system: U937; assay: Anti-proliferative assay; format: cell-based; conditions: Homo sapiens, U-937; U937, AML; 72 hours, CellTiter-Glo
# Procedure: as §1
# [26] = system: MEC-1; assay: Anti-proliferative assay; format: cell-based; conditions: Homo sapiens, MEC1; MEC-1, CLL; 72 hours, CellTiter-Glo
# Procedure: as §1
# [27] = system: Hs 505T; assay: Anti-proliferative assay; format: cell-based; conditions: Homo sapiens, CLL, 72 hours, CellTiter-Glo
# Procedure: as §1
# [28] = system: JVM-2; assay: Anti-proliferative assay; format: cell-based; conditions: Homo sapiens; JVM-2, Mantle cell lymphoma; 72 hours, CellTiter-Glo
# Procedure: as §1
# [29] = system: SKM-1; assay: Anti-proliferative assay; format: cell-based; conditions: Homo sapiens; SKM-1, AML-M5; 72 hours, CellTiter-Glo
# Procedure: as §1
# [30] = system: HT; assay: Anti-proliferative assay; format: cell-based; conditions: Homo sapiens, B-cell lymphoma, 72 hours, CellTiter-Glo
# Procedure: as §1
# [31] = system: MOLM-13; assay: Anti-proliferative assay; format: cell-based; conditions: Homo sapiens; MOLM-13, AML-M5; 72 hours, CellTiter-Glo
# Procedure: as §1
# [32] = system: HL-60; assay: Anti-proliferative assay; format: cell-based; conditions: Homo sapiens; HL-60, AML-M2; 72 hours, CellTiter-Glo
# Procedure: as §1
# [33] = target: T11, WEE1 (Homo sapiens, UniProt P30291); assay: KinomeScan; format: binding; conditions: 1uM
# T11 construct: purchased DiscoveRx KINOMEscan
# T11 sequence (P30291 whole entry): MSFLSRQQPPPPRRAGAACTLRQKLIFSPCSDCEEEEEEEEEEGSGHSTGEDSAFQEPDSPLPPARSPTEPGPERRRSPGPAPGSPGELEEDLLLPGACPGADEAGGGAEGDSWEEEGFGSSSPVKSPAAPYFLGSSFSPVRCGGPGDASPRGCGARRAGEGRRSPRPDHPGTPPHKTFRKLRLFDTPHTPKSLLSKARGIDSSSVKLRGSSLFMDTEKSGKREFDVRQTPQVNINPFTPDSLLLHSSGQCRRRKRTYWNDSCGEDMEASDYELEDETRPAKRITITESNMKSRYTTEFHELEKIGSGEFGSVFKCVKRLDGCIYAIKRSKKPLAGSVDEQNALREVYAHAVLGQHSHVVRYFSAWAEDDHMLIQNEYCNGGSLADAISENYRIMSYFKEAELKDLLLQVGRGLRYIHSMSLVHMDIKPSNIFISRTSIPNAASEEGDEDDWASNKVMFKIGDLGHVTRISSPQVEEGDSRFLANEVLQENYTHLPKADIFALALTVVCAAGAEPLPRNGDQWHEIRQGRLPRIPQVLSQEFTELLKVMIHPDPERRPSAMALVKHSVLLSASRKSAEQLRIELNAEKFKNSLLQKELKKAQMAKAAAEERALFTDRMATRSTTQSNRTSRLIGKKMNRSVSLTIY
# T2 sequence (Q8N5S9 whole entry): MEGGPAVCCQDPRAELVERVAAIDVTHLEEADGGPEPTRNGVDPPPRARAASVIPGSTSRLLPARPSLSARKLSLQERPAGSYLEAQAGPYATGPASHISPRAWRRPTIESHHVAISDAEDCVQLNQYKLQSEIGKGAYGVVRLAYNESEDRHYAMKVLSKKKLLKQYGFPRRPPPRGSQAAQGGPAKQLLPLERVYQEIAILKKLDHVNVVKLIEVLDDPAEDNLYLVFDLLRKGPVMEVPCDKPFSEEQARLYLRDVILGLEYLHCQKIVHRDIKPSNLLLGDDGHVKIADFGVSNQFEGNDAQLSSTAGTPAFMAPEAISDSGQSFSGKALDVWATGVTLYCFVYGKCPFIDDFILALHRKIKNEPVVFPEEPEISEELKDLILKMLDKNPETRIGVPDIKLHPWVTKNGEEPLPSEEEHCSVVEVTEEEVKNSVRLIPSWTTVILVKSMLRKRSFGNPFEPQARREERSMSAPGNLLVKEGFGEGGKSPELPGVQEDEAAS
smiles,measurement,setting,value
Cc1nc(NC(=O)[C@@H](N)C(C)C)sc1-c1cnc(Cl)c(NS(=O)(=O)c2ccccc2)c1 [PI3KD-IN-015],KinomeScan CDK4-cyclinD1,[1],90
same,KinomeScan CAMKK1,[2],100
same,KinomeScan IKK-alpha,[3],95
same,KinomeScan CSNK1E,[4],100
same,KinomeScan ANKK1,[5],100
same,KinomeScan MYO3B,[6],100
same,GI50,"[7]; AML1, patient primary cell AML1",1830 nM
same,GI50,"[7]; AML3, patient primary cell AML3",9200 nM
same,GI50,[7]; most of AML patient cells,< 10000 nM
same,GI50,[7]; patient primary cell AML2,850 nM
same,GI50,[7]; patient primary cell AML4,2800 nM
same,GI50,[7]; patient primary cell AML5,6300 nM
same,GI50,[7]; patient primary cell AML6,> 10000 nM
same,KinomeScan TAOK1,[8],96
same,KinomeScan ERK4,[9],100
same,KinomeScan WEE2,[10],100
same,KinomeScan TRKB,[11],100
same,GI50,[12],2200 nM
same,GI50,[13],1100 nM
same,GI50,[14],1800 nM
same,GI50,[15],3100 nM
same,GI50,[16],1800 nM
same,GI50,[17],2500 nM
same,GI50,[18],> 10000 nM
same,GI50,[19],2000 nM
same,GI50,[20],3200 nM
same,GI50,[21],> 10000 nM
same,GI50,[22],1900 nM
same,GI50,[23],1400 nM
same,GI50,[24],1400 nM
same,GI50,[25],5100 nM
same,GI50,[26],> 10000 nM
same,GI50,[27],> 10000 nM
same,GI50,[28],> 10000 nM
same,GI50,[29],2600 nM
same,GI50,[30],860 nM
same,GI50,[31],940 nM
same,GI50,[32],2300 nM
same,KinomeScan WEE1,[33],100
